Experiments:
[1] = system: CTX-II; assay: Determination of the urinary CTX-II content (competitive ELISA, creatinine corrected); assay type: in vivo, SD rats; conditions: OVX rats, urine at 3, 5, 7 weeks, FIG. 2, vs. model group
Method: Urine samples (1˜1.5 ml) were collected in eppendorf tubes from the rats before modeling and at 3 weeks, 5 weeks and 7 weeks by using metabolic cages, and stored at −20° C.
1. The concentrations of CTX-II in the urine samples obtained in accordance with example 1 were determined by the Urine Pre-clinical (PC) Cartilaps ELISA kit and the competitive enzyme linked immunosorbent assay (ELISA). The concentration of creatinine (referred to as “Crea” hereinafter) in the urine samples were determined by the multifunctional biochemistry analyzer (Beckman coulter, DXC800). The CTX-II contents were corrected by the following formula:
Corrected CTX-II ([…])=CTX-II (μg/L)/Crea (mmol/L) […]
12) The optical densities (ODs) were determined by a microplate reader (Molecular Devices Corporation, BD03315) at 450 nm and 650 nm, and a 4-parameter logistic regression curve was thereby obtained, so as to read the concentration of each sample.
4. Determination of Crea in the urine samples (mmol/L): The Crea concentration is determined by using a multiple biochemistry analyzer (Beckman coulter, DXC800) by the Lab Department of Shanghai Ruij in Hospital.
The CTX-II baseline ratios were calculated as the above formula, and the results were shown in FIG. 2, wherein ** indicates p<0.01 vs. the model group at the same time point, and * indicates p<0.05 vs. the model group at the same time point.

[2] = system: croton oil-induced ear edema; conditions: in vivo; cited from earlier work
[3] = system: interleukin-5; conditions: cited from earlier work

## O=c1c(-c2ccc(O[C@@H]3O[C@H](CO)[C@@H](O)[C@H](O)[C@H]3O)cc2)coc2cc(O)cc(O)c12 [HDA, 3-[4-(β-D-glucopyranosyl)-benzyl]5,7-dihydro-4H-1-benzopyran-4-one (4′,5,7-trihydroxylisoflavone-4′-D-glucoside)]
[1]; sophoricoside 40 mg/kg/day
  metabolic peak of urinary CTX-II (ratio to baseline) shortly after ovariectomy: also have this effect, but in a weaker manner
[1]; sophoricoside 80 mg/kg/day
  metabolic peak of urinary CTX-II (ratio to baseline) shortly after ovariectomy: significantly suppress the metabolic peak of CTX-II shortly after ovariectomy
[2]
  croton oil-induced ear edema: inhibit
[3]
  inhibition of interleukin-5: inhibitor of interleukin-5
